# How the values were obtained:
# RUP3 = target: T1, RUP3 (Homo sapiens, UniProt Q8TDV5); assay: 96-Well Cyclic AMP Membrane Assay for RUP3 (Membrane Cyclase Assay); format: biochemical; conditions: RUP3 membranes, cAMP Flashplate
# T1 construct: expressed in transfected cells
# T1 sequence (Q8TDV5 with tags, fused parts or gaps): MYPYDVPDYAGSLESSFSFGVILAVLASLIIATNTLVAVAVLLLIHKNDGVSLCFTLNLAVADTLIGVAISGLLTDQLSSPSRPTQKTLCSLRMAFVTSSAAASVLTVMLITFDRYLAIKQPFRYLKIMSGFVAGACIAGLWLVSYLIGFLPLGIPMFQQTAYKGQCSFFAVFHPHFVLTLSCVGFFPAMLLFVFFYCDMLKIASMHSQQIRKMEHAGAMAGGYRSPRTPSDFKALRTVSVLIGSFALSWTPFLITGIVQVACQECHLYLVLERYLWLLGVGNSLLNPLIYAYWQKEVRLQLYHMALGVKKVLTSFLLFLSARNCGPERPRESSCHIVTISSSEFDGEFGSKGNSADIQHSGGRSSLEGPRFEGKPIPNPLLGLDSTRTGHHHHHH
# Procedure: 96-Well Cyclic AMP Membrane Assay for RUP3
# • 1) Adenlyl cyclase Activation Flashplate Assay kit from Perkin Elmer—96 wells (SMP004B) and ^125I tracer (NEX130) which comes with the kit. […] All buffers and membranes should be kept cold (in ice bucket) while performing assay. 20 mM Hepes, pH7.4 1 mM MgCl2 100 mM NaCl 2× Regeneration Buffer (make in binding buffer): 20 mM Phosphocreatine (1.02 gm/200 ml binding buffer) 20 units Creatine phosphokinase (4 mg/200 ml) 20 uM GTP (make up 10.46 mg/ml in binding buffer and add 200 ul/200 ml) 0.2 mM ATP (22.04 mg/200 ml) […] (44.4 mg IBMX dissolved in 1 ml 100% DMSO first and then add the entire amount to 200 ml of buffer). Regeneration buffer can be aliquotted into 40-45 ml portions (in 50 ml sterile tubes) and kept frozen for up to 2 months. Simply put the tube in a beaker with room temperature water to thaw out the regeneration buffer on the day of the assay. […] (Prior to the start of the assay, the frozen membrane pellets for both RUP3 and CMV (cells transfected with an expression plasmid containing no RUP3 sequences), are suspended in binding buffer, usually 1 ml binding buffer for 1 plate of membranes. The membranes are kept in ice all the time, and a polytron (Brinkmann polytron, model # PT-3100) is used (setting 6-7, for 15-20 seconds) to obtain a homogeneous membrane suspension.) Protein concentration is determined by Bradford protein assay kit using instructions given in the kit, using the standard supplied with the kit as a reference. […]
# HIT-T15 cells [1] = assay: Stimulation of cAMP in HIT-T15 cells; format: cell-based, hamster; conditions: compared with adenyl cyclase activator forskolin
# Procedure: C. Stimulation of cAMP in HIT-T15 Cells
# HIT-T15 (ATCC CRL#1777) is an immortalized hamster insulin-producing cell line. These cells express RUP3 and therefore can be used to assess the ability of RUP3 ligands to stimulate or inhibit cAMP accumulation via its endogenously expressed receptor. In this assay, cells are grown to 80% confluence and then distributed into a 96-well Flashplate (50,000 cells/well) for detection of cAMP via a “cAMP Flashplate Assay” (NEN, Cat # SMP004). Briefly, cells are placed into anti-cAMP antibody-coated wells that contain either vehicle, the test ligand(s) at a concentration of interest, or 1 uM forskolin. The latter is a direct activator of adenylyl cyclase and serves as a positive control for stimulation of cAMP in HIT-T15 cells. All conditions are tested in triplicate. […] Bound ^125I-cAMP is detected using a Wallac Microbeta Counter. The amount of cAMP in each sample is determined by comparison to a standard curve, obtained by placing known concentrations of cAMP in some wells on the plate.
# (§1) In the first of these, RUP3 agonists are used to stimulate HIT-T15 cells, which express RUP3 at significant levels, as indicated in the Northern blot shown in FIG. 4. […] In this example a RUP3 agonist can be evaluated for its ability to stimulate cAMP production in HIT cells in comparison to the level seen with the adenyl cyclase activator forskolin.
# HIT-T15 cells [2] = assay: Stimulation of insulin secretion in HIT-T15 cells (GSIS); format: cell-based, hamster; conditions: 15 mM glucose; level comparable to forskolin
# Procedure: D. Stimulation of Insulin Secretion in HIT-T15 Cells
# It is known that stimulation of cAMP in HIT-T15 cells causes an increase in insulin secretion when the glucose concentration in the culture media is changed from 3 mM to 15 mM. Thus, RUP3 ligands can also be tested for their ability to stimulate glucose-dependent insulin secretion (GSIS) in HIT-T15 cells. In this assay, 30,000 cells/well in a 12-well plate are incubated in culture media containing 3 mM glucose and no serum for 2 hours. The media is then changed; wells receive media containing either 3 mM or 15 mM glucose, and in both cases the media contains either vehicle (DMSO) or RUP3 ligand at a concentration of interest Some wells receive media containing 1 uM forskolin as a positive control. All conditions are tested in triplicate. Cells are incubated for 30 minutes, and the amount of insulin secreted into the media is determined by ELISA, using a kit from either Peninsula Laboratories (Cat # ELIS-7536) or Crystal Chem Inc. (Cat # 90060).
# as §1
# isolated rat islets = assay: Stimulation of insulin secretion in isolated rat islets; format: cell-based; conditions: 10 μM compound; increased glucose (e.g. 300 mg/dl)
# Procedure: E. Stimulation of Insulin Secretion in Isolated Rat Islets
# As with HIT-T15 cells, it is known that stimulation of cAMP in isolated rat islets causes an increase in insulin secretion when the glucose concentration in the culture media is changed from 60 mg/dl to 300 mg/dl. RUP3 is an endogenously expressed GPCR in the insulin-producing cells of rat islets. Thus, RUP3 ligands can also be tested for their ability to stimulate GSIS in rat islet cultures. This assay is performed as follows: • A. Select 75-150 islet equivalents (IEQ) for each assay condition using a dissecting microscope. Incubate overnight in low-glucose culture medium (Optional.) • B. Divide the islets evenly into triplicate samples of 25-40 islet equivalents per sample. Transfer to 40 μm mesh sterile cell strainers in wells of a 6-well plate with 5 ml of low (60 mg/dl) glucose Krebs-Ringers Buffer (KRB) assay medium. • C. Incubate 30 minutes (1 hour if overnight step skipped) at 37° C. and 5% CO2. Save the supernatants if a positive control for the RIA is desired. • D. Move strainers with islets to new wells with 5 ml/well low glucose KRB. […] Freeze and store at <−20° C. until insulin concentrations can be determined. • I. Insulin determinations are done as above, or by Linco Labs as a custom service, using their rat insulin RIA (Cat # RI-13K). […]
SMILES,IC50 (RUP3),stimulation of cAMP in HIT-T15 cells (HIT-T15 cells [1]),insulin secretion in HIT cells (HIT-T15 cells [2]),glucose-dependent insulin release in isolated rat islets (isolated rat islets)
"CCCC1CCN(c2cc(Oc3ccc(C(=O)CC(=O)OC)cc3)ccc2[N+](=O)[O-])CC1 [Compound A30, 3-{4-[4-Nitro-3-(4-propyl-piperidin-1-yl)-phenoxy]-phenyl}-3-oxo-propionic acid methyl ester]",185 nM,robust stimulator of cAMP,stimulate insulin secretion,enhance glucose-dependent insulin release
"CC(=O)CCc1ccc(Oc2ccc([N+](=O)[O-])c(N3CCC(Sc4ccccn4)CC3)c2)cc1 [Compound A51, 4-(4-{4-Nitro-3-[4-(pyridin-2-ylsulfanyl)-piperidin-1-yl]-phenoxy}-phenyl)-butan-2-one]",346 nM,–,–,–
"O=[N+]([O-])c1ccc(Oc2ccc(-n3cncn3)cc2)cc1N1CCC(Sc2ccccn2)CC1 [Compound A52, 2-{1-[2-Nitro-5-(4-[1,2,4]triazol-1-yl-phenoxy)-phenyl]-piperidin-4-ylsulfanyl}-pyridine]",230 nM,–,–,–

# Reference: patent publication US20070066590A1, “Phenyl-and pyridylpiperidine-derivatives as modulators of glucose metabolism” (priority 2003, published 2007)
